# Where two headings read alike, the source gives them in different places.
# Key:
# human TNF-α [1] = biological target: T1, human TNF-α (Homo sapiens, UniProt P01375); experiment: TNF-α functional assay (hHEK-TNF-α SEAP reporter cells); assay type: cell-based; design: purchased ACROBiosystems TNA-H4211
# Description: Human HEK TNF-αcells (hHEK-TNF-α cells; InvivoGen Catalog #hkb-tnfdmyd; San Diego, CA, USA) are human embryonic kidney HEK293 cells that are stably transfected with the reporter gene, secreted alkaline phosphatase (SEAP). The hHEK-TNF-α cells allow for the detection of bioactive human and murine TNF-α via the activation of the NF-kB-inducible promoter and subsequent production of SEAP. Bioactivity of commercial human TNF-α protein (ActiveMax® Human TNF-α Protein, Tag Free, Low Endotoxin; available by ACROBiosystems Catalog #TNA-H4211; Newark, DE, USA) was determined in this reporter system.
# Test molecules were dissolved in 100% DMSO and serially diluted by either 3-fold serial dilution or 4-fold serial dilution. […] TNF-α protein was added at the previously determined ECso. Plates containing cells, test molecules, and cytokine were incubated overnight for 18-24 hours at 37° C., 5% CO2.
# The level of SEAP in the supernatant of each well was quantified using the Quanti Blue™ Solution (InvivoGen Catalog #rep-qba2; San Diego, CA, USA), a reagent with a colorimetric change in the presence of SEAP. To perform the Quanti-Blue assay: 20 L of the sample supernatant after the overnight 18-24 hour incubation was added to 180 L of Quanti Blue™ Reagent and incubated for 45 minutes at 37° C. […] Inhibition of TNF-α signaling was calculated utilizing GraphPad Prism (San Diego, CA, USA).
# Target sequence in this assay (P01375 77-233 limits assumed): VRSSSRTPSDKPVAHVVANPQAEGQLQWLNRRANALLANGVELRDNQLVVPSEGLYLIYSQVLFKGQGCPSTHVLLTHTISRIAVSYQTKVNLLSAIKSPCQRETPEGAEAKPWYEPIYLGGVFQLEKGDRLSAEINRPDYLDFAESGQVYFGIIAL
# human TNF-α [2] = biological target: T1, human TNF-α; experiment: TNF-α thermal melt assay; assay type: binding; design: Amino acids 77-233 of Human TNF-α protein with an N-terminal GST tag; GST (N, cleaved yes); made in house; host or cells: Escherichia coli (BL21 NiCo)
# Description: Protein was purified using glutathione agarose purification columns (Pierce™, Waltham, MA, USA). Following purification, the GST tag was removed using HRV3c protease (Pierce™, Waltham, MA, USA) and the GST tag and the TNF-α were separated via ion exchange chromatography using a 20 mM HEPES pH 8.0 buffer system ramping from 0 to 1 M NaCl over 12 column volumes with 5 ml of Q Sepharose (HiScreen Q HP, Cytiva™, Marlborough, MA, USA). The final protein includes the amino acids GPLGSG at the N-terminus of the protein.
# Protein was heated from 20° C. to 95° C. at one degree per minute in a Roche Opus384 qPCR machine.
# Target sequence in this assay (P01375 77-233): as the sequence (P01375 77-233 limits assumed) above
# [3] = hHEK-TNF-α cells, SEAP readout, TNF-α added at EC80 (1.034 pM), 18-24 hours, read-out: TNF-α Function IC50
# [4] = thermal melt, SYPRO Orange, Kd calculated as in Matulis et al., read-out: TM Kd
IC50 (human TNF-α [1]; [3]) [nM],Kd (human TNF-α [2]; [4]) [nM],IC50 (human TNF-α [1]) [nM],Kd (human TNF-α [2]) [nM],Compound
1000,120,–,–,CC(C)(C)OC(=O)CCOCCOCCOCCOCCOCCOCCOCCOCCC(=O)N1CCN(Cc2ccc(-c3c[nH]c4ccncc34)c(OCCc3ccc(-c4cccc5ccncc45)cc3)c2)CC1 [Intermediate 3]
230,69,–,–,O=C(O)CCOCCOCCOCCOCCOCCOCCOCCOCCC(=O)N1CCN(Cc2ccc(-c3c[nH]c4ccncc34)c(OCCc3ccc(-c4cccc5ccncc45)cc3)c2)CC1 [Intermediate 4]
810,–,–,–,CC(C)(C)OC(=O)CCOCCOCCOCCOCCOCCOCCC(=O)N1CCN(Cc2ccc(-c3c[nH]c4ccncc34)c(OCCc3ccc(-c4cccc5ccncc45)cc3)c2)CC1 [Intermediate 18]
370,–,–,–,O=C(O)CCOCCOCCOCCOCCOCCOCCC(=O)N1CCN(Cc2ccc(-c3c[nH]c4ccncc34)c(OCCc3ccc(-c4cccc5ccncc45)cc3)c2)CC1 [Intermediate 19]
337,31,–,–,CC(C)(C)OC(=O)CCOCCOCCC(=O)N1CCN(Cc2ccc(-c3c[nH]c4ccncc34)c(OCCc3ccc(-c4cccc5ccncc45)cc3)c2)CC1 [Intermediate 23]
247,220,–,–,O=C(O)CCOCCOCCC(=O)N1CCN(Cc2ccc(-c3c[nH]c4ccncc34)c(OCCc3ccc(-c4cccc5ccncc45)cc3)c2)CC1 [Intermediate 24]
–,–,240,< 1,CN1CCN(Cc2ccc(-c3c[nH]c4ccncc34)c(OCCc3ccc(-c4cccc5ccncc45)cc3)c2)CC1 [Intermediate 25]

# Reference: patent US20260256921A1, “BIFUNCTIONAL MOLECULES TO TARGET DEGRADATION OF TUMOR NECROSIS FACTOR” (Biohaven Therapeutics Ltd., priority 2023, published 2026)
